The test has as its target CYP3A4 (Homo sapiens, UniProt P08684). Kind of test: Determination of CYP3A4 inhibitory activity (human liver microsome, Luciferin-IPA). The note with it: CYP3A4 IC50 (nM), 37° C. 11 minutes. The procedure: The standard final Compound concentrations were 37, 111, 333, 1000, and 3000 nM. 12.5 μL of the Compound dilutions were transferred to a white 96-well plate. […] 25 μL of the buffer was added to each well. The plates were incubated at 37° C. for 11 minutes. 50 μL of luciferin detection reagent (Promega V9002) was added and the plates were incubated at room temperature for 5 minutes. The plate was read with a luminometer.
The dose-response curve and IC50 were obtained by fitting data to nonlinear regression model using GraphPad Prism software (v6.0).

Each structure is given as a SMILES string.

Sequence of CYP3A4 (P08684 whole entry): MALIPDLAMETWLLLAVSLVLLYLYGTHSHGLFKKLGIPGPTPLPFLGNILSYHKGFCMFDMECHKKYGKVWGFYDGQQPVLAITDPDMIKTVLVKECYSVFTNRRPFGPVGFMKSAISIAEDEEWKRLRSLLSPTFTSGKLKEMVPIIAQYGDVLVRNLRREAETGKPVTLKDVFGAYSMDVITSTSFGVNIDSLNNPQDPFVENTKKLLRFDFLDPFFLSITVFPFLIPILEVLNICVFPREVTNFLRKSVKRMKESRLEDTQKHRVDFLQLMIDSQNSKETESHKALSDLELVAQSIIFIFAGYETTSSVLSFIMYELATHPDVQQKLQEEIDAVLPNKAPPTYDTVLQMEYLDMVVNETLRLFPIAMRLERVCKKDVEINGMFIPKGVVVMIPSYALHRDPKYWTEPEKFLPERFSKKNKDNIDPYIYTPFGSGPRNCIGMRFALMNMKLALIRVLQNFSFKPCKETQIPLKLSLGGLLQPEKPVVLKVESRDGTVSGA

`COc1cc(NC(=O)c2cc(=O)c3ccccc3o2)c(C(=O)Nc2ccc(CCN3CCc4ccncc4C3)cc2)cc1OC` [Compound 78] displayed an IC50 of 500 to 1000 nM. For `COc1cc(NC(=O)c2cnc3ccccc3n2)c(C(=O)Nc2ccc(CCN(Cc3ccc4c(cnn4C)c3)Cc3ccc4cnn(C)c4c3)cc2)cc1OC` [Compound 172] the value was greater than 1000 nM; for `COc1cc(NC(=O)c2cnc3ccccc3n2)c(C(=O)Nc2ccc(CCN(Cc3ccc4c(cnn4C)c3)Cc3ccc4c(cnn4C)c3)cc2)cc1OC` [Compound 167], greater than 1000 nM. As for `COc1cc(NC(=O)c2cc(=O)c3ccccc3o2)c(C(=O)Nc2ccc(CCN(Cc3ccc4c(cnn4C)c3)Cc3cnccc3O)cc2)cc1OC` [Compound 228], the IC50 was greater than 1000 nM. For `COc1cc2c(cc1OC)CN(CCc1ccc(NC(=O)c3ccc(C(=O)OCCCn4ccnc4)cc3NC(=O)c3cc(=O)c4ccccc4o3)cc1)CC2` [Compound 262] the value was less than 100 nM. For `CCN(CCc1ccc(NC(=O)c2cc(OC)c(OC)cc2NC(=O)c2cc(=O)c3ccccc3o2)cc1)Cc1ccc2[nH]ncc2c1` [Compound 184] the value was greater than 1000 nM. To `COc1cc(NC(=O)c2cc(=O)c3ccccc3o2)c(C(=O)Nc2ccc(CCN(Cc3ccc(-n4ccnc4C)cc3)Cc3cccc(-n4ccnc4)c3)cc2)cc1OC` [Compound 243] belongs greater than 1000 nM; to `COc1cncc(CN(CCc2ccc(NC(=O)c3cc(OC)c(OC)cc3NC(=O)c3cc(=O)c4cc(C)ccc4o3)cc2)Cc2ccc3c(cnn3C)c2)c1` [Compound 52], 250 to 500 nM; to `COc1cncc(CN(CCc2ccc(NC(=O)c3ccc(C(=O)O)cc3NC(=O)c3cc(=O)c4ccccc4o3)cc2)Cc2ccc3c(cnn3C)c2)c1` [Compound 259], greater than 1000 nM. In turn, `COc1cc(NC(=O)c2cc(=O)c3ccccc3o2)c(C(=O)Nc2ccc(CCN(Cc3ccc4cnn(C)c4c3)Cc3ccc4cnn(C)c4c3)cc2)cc1OC` [Compound 170] registered a half-maximal inhibitory concentration (IC50) greater than 1000 nM. In turn, `COc1cc(NC(=O)c2cc(=O)c3ccccc3o2)c(C(=O)Nc2ccc(CCN(Cc3cncc(C(C)C)c3)Cc3ccc4c(cnn4C)c3)cc2)cc1OC` [Compound 253] registered an IC50 of 500 to 1000 nM. To `COc1cc(NC(=O)c2cc(=O)c3cc(C)ccc3o2)c(C(=O)Nc2ccc(CCN(Cc3cccnc3)Cc3ccc4c(cnn4C)c3)cc2)cc1OC` [Compound 38] belongs 100 to 250 nM.

`COc1cc(NC(=O)C2CC(=O)c3ccccc3O2)c(C(=O)Nc2ccc(CCN(Cc3cccc(-n4ccnc4)c3)Cc3cc(OC)c(OC)c(OC)c3)cc2)cc1OC` (centres unmarked) [Compound 213] had an IC50 of less than 100 nM. Molecule `COc1ccc(CN(CCc2ccc(NC(=O)c3cc(OC)c(OC)cc3NC(=O)c3cc(=O)c4ccccc4o3)cc2)Cc2ccc(-n3ccnc3)cc2)cc1OC` [Compound 28] registered an IC50 of 100 to 250 nM. For `Cn1ncc2cc(CNCCc3ccc(NC(=O)c4ccc(C(=O)O)cc4NC(=O)c4cc(=O)c5ccccc5o4)cc3)ccc21` [Compound 256] the value was greater than 1000 nM.

Turning to `COc1cc(NC(=O)c2cc(=O)c3ccccc3o2)c(C(=O)Nc2ccc(CCN(Cc3cncc(-c4ccccc4)c3)Cc3ccc4c(cnn4C)c3)cc2)cc1OC` [Compound 254], the IC50 is greater than 1000 nM. To `CCOc1cncc(CN(CCc2ccc(NC(=O)c3cc(OC)c(OC)cc3NC(=O)c3cc(=O)c4cc(C)ccc4o3)cc2)Cc2ccc3c(cnn3C)c2)c1` [Compound 73] belongs 250 to 500 nM; to `CN(CCc1ccc(NC(=O)c2ccc(C(=O)OCc3cscn3)cc2NC(=O)c2cc(=O)c3ccccc3o2)cc1)Cc1ccc2c(cnn2C)c1` [Compound 280], 100 to 250 nM. For `COc1cc(NC(=O)c2cc(=O)c3ccccc3o2)c(C(=O)Nc2ccc(CCN(Cc3cccc(-n4ccnc4)c3)Cc3ccc4c(cnn4C)c3)cc2)cc1OC` [Compound 16] the value was 250 to 500 nM. To `COc1cncc(CN(Cc2ccc(CNC(=O)c3cc(OC)c(OC)cc3NC(=O)c3cc(=O)c4ccccc4o3)cc2)Cc2ccc3c(cnn3C)c2)c1` [Compound 235] belongs 100 to 250 nM.

As for `COc1cc(NC(=O)c2cc(=O)c3ccccc3o2)c(C(=O)Nc2ccc(CCN(C)Cc3cccc(-n4ccnc4)c3)cc2)cc1OC` [Compound 3], the IC50 lay in the range of 100 to 250 nM. For `COc1cc(NC(=O)c2cc(=O)c3ccccc3o2)c(C(=O)Nc2ccc(CCN(Cc3ccc(-c4cccnc4)cc3)Cc3ccc4c(cnn4C)c3)cc2)cc1OC` [Compound 189] the value was greater than 1000 nM; for `COc1cc(NC(=O)c2cc(=O)c3ccccc3o2)c(C(=O)Nc2ccc(CCN(Cc3ccc4c(cnn4C)c3)Cc3cncn3C)cc2)cc1OC` [Compound 21], less than 100 nM; for `COCCOc1cncc(CN(CCc2ccc(NC(=O)c3cc(OC)c(OC)cc3NC(=O)c3cnc4ccccc4c3)cc2)Cc2ccc3c(cnn3C)c2)c1` [Compound 61], 250 to 500 nM. For `CCN(CCc1ccc(NC(=O)c2cc(OC)c(OC)cc2NC(=O)c2cc(=O)c3ccccc3o2)cc1)Cc1ccc2oncc2c1` [Compound 165] the value was greater than 1000 nM; for `COc1cc(NC(=O)c2cc(=O)c3ccccc3o2)c(C(=O)Nc2ccc(CCN(Cc3ccc4c(cnn4C)c3)Cc3ccc4c(c3)c(C)nn4C)cc2)cc1OC` [Compound 181], greater than 1000 nM; for `COc1cc(NC(=O)c2cc(=O)c3ccccc3o2)c(C(=O)Nc2ccc(CCN(Cc3cncn3C)Cc3cncn3C)cc2)cc1OC` [Compound 18], less than 100 nM.

For `COC(=O)c1ccc(C(=O)Nc2ccc(CCN(Cc3ccc4c(cnn4C)c3)Cc3ccc4c(cnn4C)c3)cc2)c(NC(=O)c2cc(=O)c3ccccc3o2)c1` [Compound 257], the IC50 was greater than 1000 nM.

Take `COc1cc(NC(=O)c2cc(=O)c3ccccc3o2)c(C(=O)Nc2ccc(CCN(C)Cc3ccc4c(c3)CNN4C)cc2)cc1OC` [Compound 12]: the half-maximal inhibitory concentration (IC50) was greater than 1000 nM. To `COc1cncc(CN(CCc2ccc(NC(=O)c3cc(OC)c(OC)cc3NC(=O)c3cnc4ccccc4c3)cc2)Cc2ccc3c(cnn3C)c2)c1` [Compound 51] belongs 250 to 500 nM; to `COc1cc(NC(=O)c2cc(=O)c3ccccc3o2)c(C(=O)Nc2ccc(CCN(Cc3cccnc3)Cc3cnc(-c4ccccc4F)nc3)cc2)cc1OC` [Compound 229], 250 to 500 nM. For `COc1cc(NC(=O)c2cc(=O)c3cc(C)ccc3o2)c(C(=O)Nc2ccc(CCN(Cc3cncc(-c4ccccc4)c3)Cc3ccc4c(cnn4C)c3)cc2)cc1OC` [Compound 255] the value was greater than 1000 nM. To `COc1cc(NC(=O)c2cc(=O)c3ccccc3o2)c(C(=O)Nc2ccc(CCN(Cc3cncc(F)c3)Cc3ccc4c(cnn4C)c3)cc2)cc1OC` [Compound 46] belongs 250 to 500 nM. Molecule `CCN(CCc1ccc(NC(=O)c2cc(OC)c(OC)cc2NC(=O)c2cc(=O)c3ccccc3o2)cc1)Cc1cccc(OCCn2ccnc2)c1` [Compound 130] came in with an IC50 of less than 100 nM. As to `COc1ccc(CN(CCc2ccc(NC(=O)c3ccc(C(=O)O)cc3NC(=O)c3cc(=O)c4ccccc4o3)cc2)Cc2ccc(OC)c(OC)c2)cc1OC` [Compound 264], the IC50 is greater than 1000 nM. As for `COC(=O)c1ccc(C(=O)Nc2ccc(CCN(C)Cc3ccc4c(cnn4C)c3)cc2)c(NC(=O)c2cc(=O)c3ccccc3o2)c1` [Compound 270], the concentration for half-maximal inhibition (IC50) was greater than 1000 nM. For `COc1cc(NC(=O)c2cc(=O)c3ccccc3o2)c(C(=O)Nc2ccc(CCN(Cc3cccnc3)Cc3ccc4cnn(C)c4c3)cc2)cc1OC` [Compound 32] the value was less than 100 nM; for `COc1cc(NC(=O)c2cc(=O)c3ccccc3o2)c(C(=O)Nc2ccc(CCN(Cc3cccnc3)Cc3ccc4c(c3)CCO4)cc2)cc1OC` [Compound 45], 250 to 500 nM.

(Values after patent US20220106301A1, “ACETAMIDO-PHENYLBENZAMIDE DERIVATIVES AND METHODS OF USING THE SAME” (Athenex, Inc., priority 2020, published 2022).)
